US8530489B2 (Vertex Pharmaceuticals Incorporated, priority 2006, dated 2013)

biological target: PLK1 (Homo sapiens, UniProt P53350); assay: PLK1 Inhibition Assay I (radioactive-phosphate incorporation); assay type: biochemical; details: Ki(app); PLK1 Inhibition Assay I or II (table does not say which)
Procedure: The compounds of the present invention are evaluated as inhibitors of human PLK kinase using the following assays.
Compounds were screened for their ability to inhibit PLK1 using a radioactive-phosphate incorporation assay. Assays were carried out in a mixture of 25 mM HEPES (pH 7.5), 10 mM MgCl2, and 1 mM DTT. Final substrate concentrations were 350 μM [γ-33P]ATP (136 mCi 33P ATP/mmol ATP, Amersham Pharmacia Biotech/Sigma Chemicals) and 450 μM peptide (KKKISDELMDATFADQEAK) [SEQ. ID:1]. Assays were carried out at 25° C. in the presence of 2 nM PLK1. An assay stock buffer solution was prepared containing all of the reagents listed above, with the exception of ATP and the test compound of interest. 30 μL of the stock solution was placed in a 96 well plate followed by addition of 2 μL of DMSO stock containing serial dilutions of the test compound (typically starting from a final concentration of 10 μM with 2-fold serial dilutions) in duplicate (final DMSO concentration 5%). The plate was pre-incubated for 10 minutes at 25° C. and the reaction initiated by addition of 8 μL [γ-33P]ATP (final concentration 350 μM).
The reaction was stopped after 240 minutes by the addition of 100 μL 0.14M phosphoric acid. A multiscreen phosphocellulose filter 96-well plate (Millipore, Cat No. MAPHN0B50) was pretreated with 100 μL 0.1 M phosphoric acid prior to the addition of 125 μL of the stopped assay mixture. The plate was washed with 4×200 μL 0.1 M phosphoric acid. After drying, 100 μL Optiphase ‘SuperMix’ liquid scintillation cocktail (Perkin Elmer) was added to the well prior to scintillation counting (1450 Microbeta Liquid Scintillation Counter, Wallac).
After removing mean background values for all of the data points, Ki(app) data were calculated from non-linear regression analysis of the initial rate data using the Prism software package (GraphPad Prism version 3.0cx for Macintosh, GraphPad Software, San Diego Calif., USA).

PLK1, sequence (P53350 whole entry): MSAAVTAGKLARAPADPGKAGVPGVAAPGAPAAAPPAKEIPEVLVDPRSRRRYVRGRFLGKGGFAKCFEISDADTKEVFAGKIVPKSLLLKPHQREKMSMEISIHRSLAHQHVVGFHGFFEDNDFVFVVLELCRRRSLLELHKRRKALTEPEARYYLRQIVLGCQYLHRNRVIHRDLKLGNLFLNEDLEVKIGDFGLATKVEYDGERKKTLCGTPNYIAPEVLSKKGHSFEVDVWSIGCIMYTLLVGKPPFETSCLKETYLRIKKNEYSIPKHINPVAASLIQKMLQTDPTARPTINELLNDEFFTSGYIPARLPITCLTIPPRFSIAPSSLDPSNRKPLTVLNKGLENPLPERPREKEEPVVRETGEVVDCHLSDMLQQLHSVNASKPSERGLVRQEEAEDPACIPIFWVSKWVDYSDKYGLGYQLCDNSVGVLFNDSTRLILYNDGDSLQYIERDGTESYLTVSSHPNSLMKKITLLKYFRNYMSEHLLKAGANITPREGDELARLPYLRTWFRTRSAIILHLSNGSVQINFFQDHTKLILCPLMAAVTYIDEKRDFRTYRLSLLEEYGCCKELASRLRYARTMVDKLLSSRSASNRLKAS

Row | Structure (SMILES) | Ki
1 | CC(C)N1CCN(c2ccc([C@@H](C)Nc3ncc(C#N)c(-c4c[nH]c5ncc(C(F)(F)F)cc45)n3)cc2)CC1 [Compound I-140, 2-((R)-1-(4-(4-isopropylpiperazin-1-yl)phenyl)ethylamino)-4-(5-(trifluoromethyl)-1H-pyrrolo[2,3-b]pyridin-3-yl)pyrimidine-5-carbonitrile] | < 3 nM
2 | CCS(=O)(=O)Nc1ccc([C@@H](C)Nc2ncc(C#N)c(-c3c[nH]c4ncc(C(F)(F)F)cc34)n2)cc1 [Compound I-169, N-(4-((1R)-1-(5-cyano-4-(5-(trifluoromethyl)-1H-pyrrolo[2,3-b]pyridin-3-yl)pyrimidin-2-ylamino)ethyl)phenyl)ethanesulfonamide] | < 3 nM
3 | CCN(CC)S(=O)(=O)c1ccc(C(C)Nc2ncc(C#N)c(-c3c[nH]c4ncc(C(F)(F)F)cc34)n2)cc1 (stereo not drawn) [Compound I-181, 4-(1-(5-cyano-4-(5-(trifluoromethyl)-1H-pyrrolo[2,3-b]pyridin-3-yl)pyrimidin-2-ylamino)ethyl)-N,N-diethylbenzenesulfonamide] | 3 to 40 nM
4 | CN1CCC(Nc2ncc(C#N)c(-c3c[nH]c4ncc(C(F)(F)F)cc34)n2)CC1 [Compound I-63, 2-(1-methylpiperidin-4-ylamino)-4-(5-(trifluoromethyl)-1H-pyrrolo[2,3-b]pyridin-3-yl)pyrimidine-5-carbonitrile] | 3 to 40 nM
5 | CC(Nc1ncc(C#N)c(-c2c[nH]c3ncc(C(F)(F)F)cc23)n1)C1(F)CCN(C(=O)[C@@H](C)O)CC1 (stereo partly drawn) [Compound I-237, 2-(1-(4-fluoro-1-((R)-2-hydroxypropanoyl)piperidin-4-yl)ethylamino)-4-(5-(trifluoromethyl)-1H-pyrrolo[2,3-b]pyridin-3-yl)pyrimidine-5-carbonitrile] | < 3 nM
6 | CC(Nc1ncc(C#N)c(-c2c[nH]c3ncc(C(F)(F)F)cc23)n1)[C@H]1C[C@@H](O)C1 (stereo partly drawn) [Compound I-270, 2-((S)-1-((1s,3R)-3-hydroxycyclobutyl)ethylamino)-4-(5-(trifluoromethyl)-1H-pyrrolo[2,3-b]pyridin-3-yl)pyrimidine-5-carbonitrile] | < 3 nM
7 | C[C@@H](Nc1ncc(C#N)c(-c2c[nH]c3ncc(C(F)(F)F)cc23)n1)C1CCN(C(=O)C(O)CN)CC1 (stereo partly drawn) [Compound I-260, 2-((1R)-1-(1-(3-amino-2-hydroxypropanoyl)piperidin-4-yl)ethylamino)-4-(5-(trifluoromethyl)-1H-pyrrolo[2,3-b]pyridin-3-yl)pyrimidine-5-carbonitrile] | < 3 nM
8 | CCN(CCN(C)C)c1ccc([C@@H](C)Nc2ncc(C#N)c(-c3c[nH]c4ncc(C(F)(F)F)cc34)n2)cn1 [Compound I-296, 2-((R)-1-(6-((2-(dimethylamino)ethyl)(ethyl)amino)pyridin-3-yl)ethylamino)-4-(5-(trifluoromethyl)-1H-pyrrolo[2,3-b]pyridin-3-yl)pyrimidine-5-carbonitrile] | < 3 nM
9 | CC(=O)N[C@H]1CC[C@H]([C@@H](C)Nc2ncc(C#N)c(-c3c[nH]c4ncc(C(F)(F)F)cc34)n2)CC1 [Compound I-208, N-((1R,4r)-4-((1R)-1-(5-cyano-4-(5-(trifluoromethyl)-1H-pyrrolo[2,3-b]pyridin-3-yl)pyrimidin-2-ylamino)ethyl)cyclohexyl)acetamide] | < 3 nM
10 | CC(C)(Nc1ncc(C#N)c(-c2c[nH]c3ncc(Cl)cc23)n1)C(=O)NC1CCCC1 [IA-4, 2-(4-(5-chloro-1H-pyrrolo[2,3-b]pyridin-3-yl)-5-cyanopyrimidin-2-ylamino)-N-cyclopentyl-2-methylpropanamide] | 3 to 40 nM
11 | C[C@@H](O)C(=O)N[C@H]1CC[C@H]([C@@H](C)Nc2ncc(C#N)c(-c3c[nH]c4ncc(C(F)(F)F)cc34)n2)CC1 [Compound I-265, Trans-(2R)—N-(4-((1R)-1-(5-cyano-4-(5-(trifluoromethyl)-1H-pyrrolo[2,3-b]pyridin-3-yl)pyrimidin-2-ylamino)ethyl)cyclohexyl)-2-hydroxypropanamide] | < 3 nM
12 | CC(C)(Nc1ncc(C#N)c(-c2c[nH]c3ncc(Cl)cc23)n1)C(=O)NCCC(F)(F)F | > 40 nM
13 | C[C@@H](Nc1ncc(C#N)c(-c2c[nH]c3ncc(C(F)(F)F)cc23)n1)C1CCN(C(=O)[C@@H](N)CCCN)CC1 [Compound I-254, 2-((R)-1-(1-((S)-2,5-diaminopentanoyl)piperidin-4-yl)ethylamino)-4-(5-(trifluoromethyl)-1H-pyrrolo[2,3-b]pyridin-3-yl)pyrimidine-5-carbonitrile] | < 3 nM
14 | CCCC(CCO)Sc1ncc(C#N)c(-c2c[nH]c3ncc(C(F)(F)F)cc23)n1 (stereo not drawn) [II-15, 2-(1-hydroxyhexan-3-ylthio)-4-(5-(trifluoromethyl)-1H-pyrrolo[2,3-b]pyridin-3-yl)pyrimidine-5-carbonitrile] | > 40 nM
15 | C[C@@H](Nc1ncc(C#N)c(-c2c[nH]c3ncc(C(F)(F)F)cc23)n1)C1CCN(C(=O)[C@H]2C[C@@H](N)C2)CC1 [Compound I-253, 2-((R)-1-(1-((1s,3S)-3-aminocyclobutanecarbonyl)piperidin-4-yl)ethylamino)-4-(5-(trifluoromethyl)-1H-pyrrolo[2,3-b]pyridin-3-yl)pyrimidine-5-carbonitrile] | < 3 nM
16 | CCC(Nc1ncc(C#N)c(-c2c[nH]c3ncc(C(F)(F)F)cc23)n1)C1CCN(CC#N)CC1 (stereo not drawn) [Compound I-173, 2-(1-(1-(cyanomethyl)piperidin-4-yl)propylamino)-4-(5-(trifluoromethyl)-1H-pyrrolo[2,3-b]pyridin-3-yl)pyrimidine-5-carbonitrile] | < 3 nM
17 | CC[C@@H](N)C(=O)N1CCC([C@@H](C)Nc2ncc(C#N)c(-c3c[nH]c4ncc(C(F)(F)F)cc34)n2)CC1 [Compound I-226, 2-((R)-1-(1-((R)-2-aminobutanoyl)piperidin-4-yl)ethylamino)-4-(5-(trifluoromethyl)-1H-pyrrolo[2,3-b]pyridin-3-yl)pyrimidine-5-carbonitrile] | < 3 nM
18 | C[C@@H](Nc1ncc(C#N)c(-c2c[nH]c3ncc(C(F)(F)F)cc23)n1)c1cnc(O)nc1 [Compound I-302, 2-(I-1-(2-hydroxypyrimidin-5-yl)ethylamino)-4-(5-(trifluoromethyl)-1H-pyrrolo[2,3-b]pyridin-3-yl)pyrimidine-5-carbonitrile] | < 3 nM

Results, then the compound that gave them:

Row | Ki | Structure (SMILES)
19 | 3 to 40 nM | CCC(Nc1ncc(C#N)c(-c2c[nH]c3ncc(C(F)(F)F)cc23)n1)c1ccccc1 (stereo not drawn) [Compound I-16, 2-(1-phenylpropylamino)-4-(5-(trifluoromethyl)-1H-pyrrolo[2,3-b]pyridin-3-yl)pyrimidine-5-carbonitrile]
20 | > 40 nM | N#Cc1cnc(NCc2ccc(-n3cccn3)cc2)nc1-c1c[nH]c2ncc(C(F)(F)F)cc12 [Compound I-92, 2-(4-(1H-pyrazol-1-yl)benzylamino)-4-(5-(trifluoromethyl)-1H-pyrrolo[2,3-b]pyridin-3-yl)pyrimidine-5-carbonitrile]
21 | > 40 nM | N#Cc1cnc(NCc2ccncc2)nc1-c1c[nH]c2ncc(C(F)(F)F)cc12 [Compound I-23, 2-(pyridin-4-ylmethylamino)-4-(5-(trifluoromethyl)-1H-pyrrolo[2,3-b]pyridin-3-yl)pyrimidine-5-carbonitrile]
22 | > 40 nM | CC(C)(C)Nc1ncc(C#N)c(-c2c[nH]c3ncc(C(F)(F)F)cc23)n1 [Compound I-4, 2-(tert-butylamino)-4-(5-(trifluoromethyl)-1H-pyrrolo[2,3-b]pyridin-3-yl)pyrimidine-5-carbonitrile]
23 | < 3 nM | CC(Nc1ncc(C#N)c(-c2c[nH]c3ncc(C(F)(F)F)cc23)n1)c1ccc(=O)[nH]c1 (stereo not drawn) [Compound I-100, 2-(1-(6-oxo-1,6-dihydropyridin-3-yl)ethylamino)-4-(5-(trifluoromethyl)-1H-pyrrolo[2,3-b]pyridin-3-yl)pyrimidine-5-carbonitrile]
24 | > 40 nM | CC(=O)NCCNc1ncc(C#N)c(-c2c[nH]c3ncc(C(F)(F)F)cc23)n1 [Compound I-40, N-(2-(5-cyano-4-(5-(trifluoromethyl)-1H-pyrrolo[2,3-b]pyridin-3-yl)pyrimidin-2-ylamino)ethyl)acetamide]
25 | > 40 nM | N#Cc1cnc(NCc2ccccc2F)nc1-c1c[nH]c2ncc(C(F)(F)F)cc12 [Compound I-21, 2-(2-fluorobenzylamino)-4-(5-(trifluoromethyl)-1H-pyrrolo[2,3-b]pyridin-3-yl)pyrimidine-5-carbonitrile]
26 | 3 to 40 nM | C[C@@H](Nc1ncc(C#N)c(-c2c[nH]c3ncc(C(F)(F)F)cc23)n1)c1cccc(C(F)(F)F)c1 [Compound I-45, 4-(5-(trifluoromethyl)-1H-pyrrolo[2,3-b]pyridin-3-yl)-2-((R)-1-(3-(trifluoromethyl)phenyl)ethylamino)pyrimidine-5-carbonitrile]
27 | > 40 nM | CCNc1ncc(C#N)c(-c2c[nH]c3ncc(C(F)(F)F)cc23)n1 [Compound I-66, 2-(ethylamino)-4-(5-(trifluoromethyl)-1H-pyrrolo[2,3-b]pyridin-3-yl)pyrimidine-5-carbonitrile]
